Source: patent US20230064976A1, “AMORPHOUS FORM OR CRYSTALLINE FORM OF 2-INDOLINOLINOLOLYLSPIRONONE COMPOUNDS OR THEIR SALTS, SOLVENT COMPLEXES” (ASCENTAGE PHARMA (SUZHOU) CO., LTD., priority 2020, published 2023)
Values belong to the compound of their own block, whether it stands above or below them.

Assays:
Type in all cases: physicochemical
[1] = Stability testing of amorphous form XVI (60° C., 90% RH, light)
Experimental: The amorphous XVI sample was placed at 60° C., with high humidity 90% RH, under the light condition (light condition: 4500 Lux), and sampled on Day 0/5/10 to investigate its content, related substances and crystal form.

[2] = Dynamic Vapour Sorption (DVS) hygroscopicity test; conditions: for Weight Gain (80% RH): DVS
Experimental: The instruments used and their parameters are as follows: XPRD—X-ray powder diffraction, using Bruker D8 Advance Diffractometer to characterize solids. Copper target wavelength is 1.54 Å Kα radiation (40 kV, 40 mA), 0-20 goniometer, Mo monochromator, Lynxeye detector, detection angle is 3-40° 2θ/3-30° 20, step size It is 0.02° 20, the speed is 0.2 s/step, and the detection sample weight is >2 mg. TGA—Thermo gravimetric analysis, using TA Instruments Q500 TGA, the detection sample size is 1 mg-10 mg, the common detection method is Hi-Res sensitivity 3.0, Ramp 10.00° C./min, res 5.0 to 150.00° C., Ramp 10.00° C./min to 350° C. DSC—differential scanning calorimetry analysis, using TA Instruments Q200 DSC, the detection sample weight is 0.5 mg-5 mg, the gas flow rate is 40 mL/min, the common detection method is Equilibrate, 20° C., Ramp 10° C./min to 280° C.-300° C. DVS—Dynamic Vapour Sorption analysis, the detection sample weight is 1 mg-10 mg, the gas flow rate is 10 mL/min, the common detection method is equilibrium at 25° C., humidity 0%, isothermal for 90 minutes, if the weight percentage is less than 0.0100, the next isothermal test is aborted for 15.00 minutes, and the 10% step humidity is 80.00% every 90 minutes. If the weight percentage is less than 0.0100, the next isothermal test is aborted for 15.00 minutes, and the step humidity is 10% to 0.00% every 90 minutes. For the above identification and characterization results of XPRD, TGA, DSC, and DVS, please refer to FIG. 1-82, Table 1-15 and related description.
Take about 10 mg of crystalline form XI sample for Dynamic Vapour Sorption (DVS) test. The conclusions are described in Table 23 below.
About 10 mg of amorphous form XVI sample was taken for dynamic moisture adsorption (DVS) test. The conclusions are described in Table 25 below:
Dynamic water sorption (DVS) was performed on hydrobromide and maleate crystalline samples.

[3] = Stability test of crystalline form XI (different temperature and humidity)
Description: Place the sample of Form XI under high temperature, high humidity 75% RH conditions, and sample on Day 0, Day 5, Day 10 and Day 30 to investigate its content, related substances and crystal forms.

[4] = Stability test for salt form screening (maleate crystalline form V; HPLC, XRD)
Experimental: Weigh 30 mg of compound (maleate crystalline form V) into a 8 mL glass bottle, then place it at high temperature (60° C., open), high humidity (room temperature/75% RH, open) and light (room temperature, white light: 6980 lux, ultraviolet 282 μW/cm2), take samples on Day 5/10/30 respectively for testing (HPLC, XRD).

[5] = Competitive experiment of crystalline form X and crystalline form XI (suspension stirring, XRD); conditions: acetone/n-heptane, dichloromethane/n-heptane, acetone/water 1/3 v:v; room temperature 1-3 days
Description: Take an equal amount of crystalline form X and crystalline form XI samples, mix them uniformly, and sample for XRD detection.

[6] = Day 5—light condition (4500 Lux)
[7] = Day 10—light condition (4500 Lux)

Total impurity content (%) ([1]; Day 0): 0.38%
XPRD ([1]; Day 0): Amorphous
content (%) ([1]; Day 0): 99.4%
Total impurity content (%) ([1]; Day 5—60° C.): 0.48%
content (%) ([1]; Day 5—60° C.): 101.7%
Total impurity content (%) ([1]; Day 5—90% RH): 0.40%
content (%) ([1]; Day 5—90% RH): 102.1%
Total impurity content (%) [1, 6]: 0.44%
content (%) [1, 6]: 102.4%
Total impurity content (%) ([1]; Day 10—60° C.): 0.54%
XPRD ([1]; Day 10—60° C.): Amorphous
content (%) ([1]; Day 10—60° C.): 99.0%
Total impurity content (%) ([1]; Day 10—90% RH): 0.40%
XPRD ([1]; Day 10—90% RH): Amorphous
content (%) ([1]; Day 10—90% RH): 101.1%
Total impurity content (%) [1, 7]: 0.57%
XPRD [1, 7]: Amorphous
content (%) [1, 7]: 100.4%
XRPD before and after DVS [2]: Unchanged
water absorption during storage (conclusion from DVS) [2]: not easy to absorb water
DVS weight change of 0% RH-80% RH [2]: 2.5±0.5%
Weight Gain (80% RH) [2]: 2.32%
Compound: CCN1C(C(=O)NC23CCC(C(=O)O)(CC2)CC3)C(c2cccc(Cl)c2F)C2(C(=O)Nc3cc(Cl)ccc32)C12CCCCC2 (stereo not shown) [Form XVI]

content and purity (summary) ([3]; 5 days, 10 days and 30 days, high temperature and high humidity): almost unchanged
Total impurity content (%) ([3]; Day 0): 0.31%
XPRD ([3]; Day 0): Form XI
content (%) ([3]; Day 0): 99.5%
Total impurity content (%) ([3]; Day 5—40° C.): 0.21%
content (%) ([3]; Day 5—40° C.): 99.6%
Total impurity content (%) ([3]; Day 5—60° C.): 0.15%
content (%) ([3]; Day 5—60° C.): 99.1%
Total impurity content (%) ([3]; Day 5—75% RH): 0.16%
content (%) ([3]; Day 5—75% RH): 99.1%
Total impurity content (%) ([3]; Day 10—40° C.): 0.25%
XPRD ([3]; Day 10—40° C.): Form XI
content (%) ([3]; Day 10—40° C.): 99.1%
Total impurity content (%) ([3]; Day 10—60° C.): 0.25%
XPRD ([3]; Day 10—60° C.): Form XI
content (%) ([3]; Day 10—60° C.): 100.1%
Total impurity content (%) ([3]; Day 10—75% RH): 0.24%
XPRD ([3]; Day 10—75% RH): Form XI
content (%) ([3]; Day 10—75% RH): 99.3%
Total impurity content (%) ([3]; Day 30—40° C.): 0.33%
XPRD ([3]; Day 30—40° C.): Form XI
content (%) ([3]; Day 30—40° C.): 98.9%
Total impurity content (%) ([3]; Day 30—75% RH): 0.32%
XPRD ([3]; Day 30—75% RH): Form XI
content (%) ([3]; Day 30—75% RH): 100.5%
XRPD before and after DVS [2]: Unchanged
water absorption during storage (conclusion from DVS) [2]: not easy to absorb water
DVS weight change of 0% RH-80% RH [2]: 0.17±0.05%
Weight Gain (80% RH) [2]: 0.01%
Compound: CCN1C(C(=O)NC23CCC(C(=O)O)(CC2)CC3)C(c2cccc(Cl)c2F)C2(C(=O)Nc3cc(Cl)ccc32)C12CCCCC2.O (stereo not shown) [Form XI]

Total impurity content (%) ([4]; Day 0): 1.20%
XPRD ([4]; Day 0): Form V
content and purity (summary) ([4]; Day 5/10/30, high temperature, high humidity and light): almost unchanged
Total impurity content (%) ([4]; Day 5—60° C.): 1.20%
XPRD ([4]; Day 5—60° C.): Form V
Total impurity content (%) ([4]; Day 5—75% RH): 1.10%
XPRD ([4]; Day 5—75% RH): Form V
Total impurity content (%) ([4]; Day 5—light): 1.10%
XPRD ([4]; Day 5—light): Form V
Total impurity content (%) ([4]; Day 10—60° C.): 1.20%
XPRD ([4]; Day 10—60° C.): Form V
Total impurity content (%) ([4]; Day 10—75% RH): 1.20%
XPRD ([4]; Day 10—75% RH): Form V
Total impurity content (%) ([4]; Day 10—light): 1.10%
XPRD ([4]; Day 10—light): Form V
Total impurity content (%) ([4]; Day 30—60° C.): 1.20%
XPRD ([4]; Day 30—60° C.): Form V
Total impurity content (%) ([4]; Day 30—75% RH): 1.10%
XPRD ([4]; Day 30—75% RH): Form V
XRPD before and after DVS [2]: Unchanged
Weight Gain (80% RH) [2]: 1.2% (slightly
Compound: CCN1C(C(=O)NC23CCC(C(=O)O)(CC2)CC3)C(c2cccc(Cl)c2F)C2(C(=O)Nc3cc(Cl)ccc32)C12CCCCC2.O=C(O)C=CC(=O)O (stereo not shown) [maleate crystalline form V]

Weight Gain (80% RH) [2]: 5.1% (hygroscopic)
Compound: Br.CCN1C(C(=O)NC23CCC(C(=O)O)(CC2)CC3)C(c2cccc(Cl)c2F)C2(C(=O)Nc3cc(Cl)ccc32)C12CCCCC2 (stereo not shown) [hydrobromide crystalline form VI]

form after stirring mixed sample of form X and form XI (XRD) [5]: converted to crystalline form XI
DVS water absorption 0% RH-60% RH ([2]; 0% RH-60% RH): < 0.1%
DVS weight change 60% RH-80% RH ([2]; 60% RH-80% RH): 1.6±0.2%
Compound: CCN1C(C(=O)NC23CCC(C(=O)O)(CC2)CC3)C(c2cccc(Cl)c2F)C2(C(=O)Nc3cc(Cl)ccc32)C12CCCCC2 (stereo not shown) [crystalline form X]
